# Data reported in patent US9205137B2, “Maturation of gastrointestinal tract” (ANARA AB, priority 2010, dated 2015).
# Marks after values point to notes of the source that are not given here.
# Legend:
# [1] = system: suckling rats; test: Set I: brush-border disaccharidase activity in proximal SI, Example 3; format: in vivo, Rattus norvegicus; conditions: proximal part of SI, in words (FIG. 5)
# Procedure: The proximal samples of the SI were de-frozen and weighted and then homogenized with 9 parts of 0.9% NaCl (9 w/v). The homogenates (50 μl diluted samples) were incubated with the appropriate disaccharide (50 μl of 0.056M sucrose, maltose and lactose) for 1 hour at 37° C. After this, the liberated glucose was determined by adding glucose oxidase reagent (Sigma Chemicals), and incubated for 30 minutes. Then samples were transferred into the 96-well plate in triplication and the absorbance was measured at 450 nm. To measure the protein contents of the homogenates, Lowry method, was used, where BSA (Bovine Serum Albumin) was used as a standard. The results are presented as specific activity units per mg of protein (u/mg).
# [2] = system: suckling rats; test: Set II: different doses of protease, organ weights, stomach pH and body weight, Example 4; format: in vivo, Rattus norvegicus; set-up: mean body weight Bwt 1/Day 14 / mean body weight Bwt2/Day 15 / mean body weight Bwt3/Day 16 / mean body weight Bwt4/Day 17: unit not given here; conditions: for Cecum / Distal SI / Liver / Pancreas / Proximal SI / SI length / Spleen / Stomach / Thymus: day 17; for pH: stomach contents
# Procedure: (§1) The second study was about comparing the effect of different doses of protease (15000 USP, 7500 USP, 3750 USP and […]) on the development of the GI tract with control. In this experiment 2 litters of pups were used (n=13 and n=12). Pups were divided into five groups to fed with different doses of protease; 15000 USP (n=3), P7500 USP (n=6), P 3750 USP (n=6), P 1875 USP (n=5) and water as a control (n=5). The feeding was during 3 continuous days, once a day. 24 hours after the last feeding, on day 17, similar dissection steps and analytical procedures as mentioned for the previous experiment were followed.
# All data are presented as mean±standard deviation (SD). […] Results were considered as significant when P<0.05.
# [3] = system: suckling rats; test: Set I: plasma concentration of marker molecules BSA and BIgG (macromolecule absorption), Example 3; format: in vivo, Rattus norvegicus; conditions: 3 hours after marker feeding, day 17, in words (FIG. 6)
# Description: The plasma level of marker molecules was quantified by using immunoassay rocket electrophoresis and SRI (single radial immunodiffusion) for plasma BSA and BIgG respectively.
# [4] = system: suckling rats; test: Papain vs microbial protease: body and organ weight, Example 8; format: in vivo, Rattus norvegicus
# Description: (§2) The litter size for each dam was limited to 12 or 13 pups, to reduce variability.
# (§3) Suckling pups were divided into 3 groups depending on the treatments; microbial protease as a positive control, water as negative control and enzyme from papaya fruit (papain) (in total; protease=7, papain=8, control=7). The enzymes are available in the market in form of powders and were resolved in distilled water prior to stomach feeding during 14-16 d of age. The administered dose for each enzyme was 10000 USP/animal. The volume of administered enzymes and water (for control groups) was 0.01 ml/g b.wt. Prior to the feeding procedure, the pups were weighed. […] Three hours later, the pups were anaesthetized and organs were dissected out for analyses.
# [5] = system: suckling rats; test: Papain vs microbial protease: macromolecule absorption (BSA, BIgG in plasma), Example 8; format: in vivo, Rattus norvegicus; conditions: day 17, 3 hours after feeding, in words (FIG. 14)
# Description: as §2, §3
# [6] = system: suckling rats; test: Set II: intestinal morphology of distal SI at different doses of protease, Example 4; format: in vivo, Rattus norvegicus; conditions: in words (FIG. 8)
# Procedure: as §1
# All samples collected for histology were fixed with Bouin's solution for 24 hours and then stored in 70% ethanol, dehydrated, embedded into the paraffin and then cut into sections with 5 μm thickness. The tissue sections were transferred onto the slides, rehydrated and stained with H&E according to the standard technique. After mounting under cover slips samples were examined using light microscopy to estimate ratio between total length of the villus and length of the adult type enterocytes using ImageJ program.
# [7] = system: rat pups; test: Set III: health and growth monitored for 3 weeks after protease, early and normal weaning, Example 5; format: in vivo; conditions: protease 15 000 USP
# Description: In the last study, the health and the growth of the pups were monitored for 3 weeks. Pups where treated at age 14 day of life with the protease 15 000 USP/rat/day for 3 days once a day (on days 14, 15, and 16). This study performed using 3 litters (n=9, n=11 and n=10) where pups were divided into 2 groups; enzyme treated and control. After last feeding rat were further divided into subgroups: early weaning started on day 17 (n=8) and normal weaning started on day 21 (n=6). All animals were monitored via weighing for one week on a daily basis and then once a week for the next 2 weeks.
# [8] = 10000 USP/animal, days 14-16, day 17
substance,measurement,setting,value
Proteinase from Aspergillus melleus [Protease],lactase activity,[1],decreased
same,maltase activity,[1],significantly increased
same,sucrase activity,[1],significantly increased
same,diarrhoea,"[2]; highest dose of protease, after first dose on day 14",signs of diarrhoea
same,mean body weight Bwt 1/Day 14,[2]; protease 15 000USP,28.7
same,mean body weight Bwt2/Day 15,[2]; protease 15 000USP,27.4*
same,mean body weight Bwt3/Day 16,[2]; protease 15 000USP,28.2*
same,mean body weight Bwt4/Day 17,[2]; protease 15 000USP,30.1*
same,mean body weight Bwt 1/Day 14,[2]; protease 1875USP,28.2
same,mean body weight Bwt2/Day 15,[2]; protease 1875USP,31.7
same,mean body weight Bwt3/Day 16,[2]; protease 1875USP,32.9
same,mean body weight Bwt4/Day 17,[2]; protease 1875USP,34.8
same,Cecum,[2]; protease 1875 USP,2.3 ± 0.2 mg/g BW
same,Distal SI,[2]; protease 1875 USP,13.3 ± 1.4 mg/g BW
same,Liver,[2]; protease 1875 USP,31.7 ± 1.1 mg/g BW
same,Pancreas,[2]; protease 1875 USP,3.0 ± 0.4 mg/g BW
same,Proximal SI,[2]; protease 1875 USP,16.4 ± 0.8 mg/g BW
same,SI length,[2]; protease 1875 USP,1.5 ± 0.0 cm/g BW
same,Spleen,[2]; protease 1875 USP,3.3 ± 0.4 mg/g BW
same,Stomach,[2]; protease 1875 USP,6.1 ± 0.3 mg/g BW
same,Thymus,[2]; protease 1875 USP,5.6 ± 0.3 mg/g BW
same,mean body weight Bwt 1/Day 14,[2]; protease 3750USP,28.5
same,mean body weight Bwt2/Day 15,[2]; protease 3750USP,30.5
same,mean body weight Bwt3/Day 16,[2]; protease 3750USP,32.3
same,mean body weight Bwt4/Day 17,[2]; protease 3750USP,33.3
same,Cecum,[2]; protease 3750 USP,2.8 ± 0.3 mg/g BW
same,Distal SI,[2]; protease 3750 USP,14.7 ± 1.1 mg/g BW
same,Liver,[2]; protease 3750 USP,32.8 ± 1.7 mg/g BW
same,Pancreas,[2]; protease 3750 USP,3.2 ± 0.3 mg/g BW
same,Proximal SI,[2]; protease 3750 USP,17.6 ± 1.5 mg/g BW
same,SI length,[2]; protease 3750 USP,1.5 ± 0.1 cm/g BW
same,Spleen,[2]; protease 3750 USP,3.3 ± 0.5 mg/g BW
same,Stomach,[2]; protease 3750 USP,6.4 ± 0.3 mg/g BW
same,Thymus,[2]; protease 3750 USP,5.6 ± 0.8 mg/g BW
same,mean body weight Bwt 1/Day 14,[2]; protease 7500USP,28.9
same,mean body weight Bwt2/Day 15,[2]; protease 7500USP,30.6
same,mean body weight Bwt3/Day 16,[2]; protease 7500USP,32.2
same,mean body weight Bwt4/Day 17,[2]; protease 7500USP,33.6
same,Cecum,[2]; protease 7500 USP,3.0 ± 0.2 mg/g BW
same,Distal SI,[2]; protease 7500 USP,15.4 ± 1.7 mg/g BW
same,Liver,[2]; protease 7500 USP,33.0 ± 1.6 mg/g BW
same,Pancreas,[2]; protease 7500 USP,3.4 ± 0.4 mg/g BW
same,Proximal SI,[2]; protease 7500 USP,19.3 ± 2.0 mg/g BW
same,SI length,[2]; protease 7500 USP,1.8 ± 0.1 cm/g BW
same,Spleen,[2]; protease 7500 USP,3.1 ± 0.1 mg/g BW
same,Stomach,[2]; protease 7500 USP,6.3 ± 0.4 mg/g BW
same,Thymus,[2]; protease 7500 USP,4.8 ± 0.6 mg/g BW
same,Cecum,[2]; protease 15000 USP,4.2 ± 0.1 mg/g BW
same,Distal SI,[2]; protease 15000 USP,18.6 ± 1.0 mg/g BW
same,Liver,[2]; protease 15000 USP,38.5 ± 2.4 mg/g BW
same,Pancreas,[2]; protease 15000 USP,4.8 ± 0.2 mg/g BW
same,Proximal SI,[2]; protease 15000 USP,28.2 ± 1.7 mg/g BW
same,SI length,[2]; protease 15000 USP,1.8 ± 0.1 cm/g BW
same,Spleen,[2]; protease 15000 USP,3.0 ± 0.3 mg/g BW
same,Stomach,[2]; protease 15000 USP,6.9 ± 0.7 mg/g BW
same,Thymus,[2]; protease 15000 USP,3.0 ± 0.2 mg/g BW
same,pH,[2]; protease 1875 USP,4.1 ± 0.2
same,pH,[2]; protease 3750 USP,4.1 ± 0.4
same,pH,[2]; protease 7500 USP,3.9 ± 0.7
same,pH,[2]; protease 15000 USP,3.4 ± 0.8
same,uptake of marker molecule BIgG to plasma,[3],significantly lower
same,uptake of marker molecule BSA to plasma,[3],significantly lower
same,Body weight,[4]; [8],34.8 ± 3.31 gr
same,Cecum,[4]; [8],2.89 ± 0.47 mg/g BW
same,Distal SI,[4]; [8],15.2 ± 2.3 mg/g BW
same,Liver,[4]; [8],32.22 ± 1.37 mg/g BW
same,Pncrease,[4]; [8],3.87 ± 0.34 mg/g BW
same,Proxima SI,[4]; [8],20.24 ± 2.37 mg/g BW
same,SI length,[4]; [8],1.59 ± 0.18 cm/g BW
same,Spleen,[4]; [8],3.18 ± 0.23 mg/g BW
same,Stomach,[4]; [8],6.71 ± 0.41 mg/g BW
same,Thymus,[4]; [8],4.95 ± 0.93 mg/g BW
same,effect on body growth,"[4]; dose 10 000 USP, days 14 to 17, in words (FIG. 12)",No effect
same,"uptake of macromolecules, BIgG absorption",[5],significantly lower
same,vacuolated (fetal-type) enterocytes in distal SI,[6]; protease 1875 USP,limited to the middle and the tip of the villi
same,vacuolated (fetal-type) enterocytes in distal SI,[6]; protease 3750 USP,limited to the middle and the tip of the villi
same,vacuolated (fetal-type) enterocytes in distal SI,[6]; protease 7500 USP,limited to the middle and the tip of the villi
same,vacuolated (fetal-type) enterocytes in distal SI,[6]; protease 15000 USP,all of the vacuolated enterocytes disappeared
same,diarrhea,[7]; after first treatment,signs of diarrhea
same,growth in comparison to control group,[7]; in words (FIG. 9),decrease in growth after first treatment
same,effect of early weaning on treated group,"[7]; weaning day 17, in words",no disadvantage
